Source: US20070155755A1, “N-arylshydroxyalkylidene-carboxamide compositions and methods” (priority 2004, published 2007)
Values belong to the compound of their own block, whether it stands above or below them.

Columns and labels:
skin of the upper lip = assay: Cooling sensation bioassay, ointment applied to skin above the upper lip (philtrum); assay type: in vivo, human; conditions: for duration of action (in words): application to the skin of test subjects; for duration of action, cooling on the skin of the upper lip (FIG. 1 legend): in Aquaphor ointment, concentration not given; for quality of sensation and duration (coolness not cold, duration at least three hours): philtrum method of testing; for duration of action, cooling on the skin of the upper lip: 0.5% wt/vol in Aquaphor ointment
Source text: A reliable place for topical application is on the upper lip, above the vermillion border of the lips, on the philtrum, lateral to the philtrum until the nasolabial folds, and on the lower nostrils. This part of the face is known to be densely innervated with cold receptors, second only to the surface of eyeball. Tingling, cool and cold sensations may be experienced and rated for intensity. This test is quite accurate for predicting the cooling activity of candidate N-arylshydroxyalkylidene-cCarboxamide drugs, but most importantly, it also measures the duration of drug action on the sensory receptors. The duration of action is not measured in a receptor assay and is difficult to quantify on the tongue because of the dynamic fluid conditions in the oral cavity and the presence of taste factors that affect thermosensation.
Bioassay Procedures For bioassay of CPS-195 on the skin, CPS-195 was stirred and dissolved in warm liquid Aquaphor® ointment to yield ointment concentrations of 0.25, 0.5, 1 and 2% wt/vol. After cooling, 50 to 80 mg of the solid ointment was placed on the tip of a plastic stick and applied to the skin above the upper lip, on the philtrum, and lateral to the philtrum up to the nasolabial folds, of test subjects and the onset and duration of cooling sensations recorded.
The intensity of the subjective skin sensation is rated as 0, 1, 2 or 3 with: 0 as no change, 1 as slight coolness, cold, or tingling, 2 as clear cut signal of coolness, cold, or tingling, and 3 as robust cooling or cold. The interval for recording sensations is at 5 min intervals, until two successive zeroes are obtained. The results are averaged values of 4 to 6 separate trials in the same individual. The data are plotted using SigmaPlot (Systat Software, Point Richmond Calif.) and a smoothing function with a negative exponential was used for analysis and statistical fit of the results.
The onset of drug action is taken as the time to reach 2 units of coolness intensity, and offset of drug action is the time when coolness intensity drops below 1.5, after previously surpassing 2 units. The duration of cooling action is defined as the offset time minus the onset time, which in this case averaged […]. The quality of the sensation is also noted, such as refreshing coolness, cold, or if the sensation is accompanied by irritation (stinging or burning). The quality of the sensation is not rated for intensity.

[1] = test system: dorsal surface of the tongue; assay: Cooling sensation after placement on the dorsal surface of the tongue; assay type: in vivo, human; conditions: 2 mg on dorsal surface of the tongue
Protocol: The onset of cooling was 3 to 5 min, but once the effect was established, the entire oral cavity and pharyngeal surfaces (oro-, laryngo- and naso-pharynx) felt cool.

[2] = test system: throat irritation and cough; assay: Ludipress tablet on the tongue in an individual with throat irritation and cough; assay type: in vivo, human; conditions: 3% wt/wt tablet in Ludipress, 60 mg (1.8 mg CPS-195)
Protocol: CPS-195 was formulated as a 3% wt/wt tablet in Ludipress®, a rapidly disintegrating direct compression excipient made by BASF Corp. The tablet size was 60 mg so each unit contained 1.8 mg of CPS-195. […] For example, applied onto the mucous membranes of the oral cavity it can soothe the discomforts of pharyngitis/laryngitis, oral mucositis, oral ulcers, and idiopathic facial pain. In the pharynx and upper airways, CPS-195 may be used to reduce or to treat cough, asthma, and chronic obstructive pulmonary disease. On the skin, CPS-195 can be used to treat the discomfort of severe acne, eczema, diabetic ulcers, and the like.

TRP-M8 receptor = molecular target: T1, TRP-M8 receptor (Homo sapiens, UniProt Q7Z2W7); assay: TRP-M8 receptor assay; assay type: cell-based
T1 construct: expressed in transfected cells
Source text: Tests for Activities of New Compounds. Pain was defined by Sir Charles Sherrington as “the psychic adjunct of an imperative protective reflex”. Psychic events such as cooling, irritation, itch, and pain cannot be expressed by animals (animals cannot say “ouch” or that “it itches”) so the sensory effects of chemicals must be indirectly inferred. Receptor assays, based on cells transfected with the gene for TRP-M8 or TRP-A1, may be used as a model of sensory processes. […] The best information on the pharmacological properties of these chemicals must therefore be derived from human experiment.

T1 sequence (Q7Z2W7 whole entry): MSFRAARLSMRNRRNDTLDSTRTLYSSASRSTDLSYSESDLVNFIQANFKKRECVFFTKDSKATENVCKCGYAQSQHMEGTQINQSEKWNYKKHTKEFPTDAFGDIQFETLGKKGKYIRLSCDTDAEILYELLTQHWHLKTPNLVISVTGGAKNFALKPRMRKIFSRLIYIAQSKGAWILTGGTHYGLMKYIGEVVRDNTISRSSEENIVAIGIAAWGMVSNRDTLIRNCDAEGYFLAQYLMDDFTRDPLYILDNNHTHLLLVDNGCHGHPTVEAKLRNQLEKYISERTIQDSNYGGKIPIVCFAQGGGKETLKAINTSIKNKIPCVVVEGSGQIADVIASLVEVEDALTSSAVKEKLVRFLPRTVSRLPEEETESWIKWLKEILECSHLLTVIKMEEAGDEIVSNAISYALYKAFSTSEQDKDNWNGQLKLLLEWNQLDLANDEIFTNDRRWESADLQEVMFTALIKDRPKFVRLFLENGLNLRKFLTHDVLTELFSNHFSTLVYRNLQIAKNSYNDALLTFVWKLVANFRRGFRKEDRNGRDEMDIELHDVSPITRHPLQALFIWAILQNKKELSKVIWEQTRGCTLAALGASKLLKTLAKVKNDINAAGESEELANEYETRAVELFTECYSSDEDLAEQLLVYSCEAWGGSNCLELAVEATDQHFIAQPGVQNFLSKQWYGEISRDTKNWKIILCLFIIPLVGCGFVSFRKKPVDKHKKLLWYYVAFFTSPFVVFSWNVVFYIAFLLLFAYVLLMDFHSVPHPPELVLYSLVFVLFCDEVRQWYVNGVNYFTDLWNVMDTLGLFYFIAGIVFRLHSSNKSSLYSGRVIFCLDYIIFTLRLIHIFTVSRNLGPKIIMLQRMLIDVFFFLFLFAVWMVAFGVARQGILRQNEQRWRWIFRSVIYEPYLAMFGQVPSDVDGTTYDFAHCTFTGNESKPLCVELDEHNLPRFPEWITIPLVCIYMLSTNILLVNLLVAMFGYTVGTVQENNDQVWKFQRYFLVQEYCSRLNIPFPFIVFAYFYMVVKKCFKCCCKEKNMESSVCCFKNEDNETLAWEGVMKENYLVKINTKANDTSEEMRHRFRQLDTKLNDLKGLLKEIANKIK

SMILES: CC1CCC(C(C)C)C(O)C1 (single isomer, unassigned; (-)) [(−)-menthol, reference compound]
duration of action (in words) (skin of the upper lip): active for less than one hour

SMILES: CC(C)[C@@H]1CC[C@@H](C)C[C@H]1C(=O)N(C)CC(O)c1cccc(O)c1 (stereo in doubt) [CPS-195, 2-Isopropyl-5-methyl-cyclohexanecarboxylic acid [2′-hydroxy-2′-(3″-hydroxy-phenyl)-ethyl]-N-methyl-amide]
duration of action, coolness and cold on the skin of the upper lip (skin of the upper lip; 0.25% wt/vol in Aquaphor ointment): 1.2 h
duration of action, coolness and cold on the skin of the upper lip (skin of the upper lip; 1% wt/vol in Aquaphor ointment): 2.4 h
duration of action, coolness and cold on the skin of the upper lip (skin of the upper lip; 2% wt/vol in Aquaphor ointment): 5.2 h
duration of action, cooling on the skin of the upper lip (FIG. 1 legend) (skin of the upper lip): more than 1 hr
potency compared to CPS-179, CPS-190 and CPS-192 (skin of the upper lip; upper lip ointment test): most potent
onset of cooling [1]: 3 to 5 min
duration of antitussive effect [2]: 24 h
effect on throat irritation [2]: reduced throat irritation

SMILES: CC(C)[C@@H]1CC[C@@H](C)C[C@H]1C(=O)Nc1ccc(S(=O)(=O)Nc2ncccn2)cc1 [CPS-125]
quality of sensation and duration (coolness not cold, duration at least three hours) (skin of the upper lip): qualitative aspects of sensation are met

SMILES: CC(=O)c1ccc(C(CO)CNC(=O)[C@@H]2C[C@H](C)CC[C@H]2C(C)C)cc1 (stereo partly shown) [CPS-179, 2-Isopropyl-5-methyl-cyclohexanecarboxylic acid [2′-(4″-acetyl-phenyl)-3′-hydroxy-propyl]-amide]
duration of action, cooling on the skin of the upper lip (skin of the upper lip): more than 1 hr
duration of action, cooling on the skin of the upper lip (FIG. 1 legend) (skin of the upper lip): more than 1 hr

SMILES: CC1CCC(C(C)C)C(C(=O)N(C)CC(O)c2ccc(O)c(O)c2)C1 (stereo not shown) [CPS-190]
duration of action, cooling on the skin of the upper lip (skin of the upper lip): more than 1 hr
duration of action, cooling on the skin of the upper lip (FIG. 1 legend) (skin of the upper lip): more than 1 hr

SMILES: CC1CCC(C(C)C)C(C(=O)NCC(O)c2cccc(O)c2)C1 (stereo not shown) [CPS-192]
duration of action, cooling on the skin of the upper lip (skin of the upper lip): more than 1 hr
duration of action, cooling on the skin of the upper lip (FIG. 1 legend) (skin of the upper lip): more than 1 hr

SMILES: CCOC(=O)CNC(=O)[C@@H]1C[C@H](C)CC[C@H]1C(C)C [WS-5, reference compound]
duration of action (in words) (skin of the upper lip): active for less than one hour

activity on the TRP-M8 receptor assay (TRP-M8 receptor): active at sub-micromolar concentrations
SMILES: COc1ccc(NC(=O)[C@@H]2C[C@H](C)CC[C@H]2C(C)C)cc1 [WS-12, reference compound]
end of action (skin of the upper lip; 2% preparation): dissipated at the end of one hour
time at which duration of action peaks (skin of the upper lip; 2% preparation): 30 min
sensation elicited (skin of the upper lip; applied at 1 to 2% to the philtrum and its environs): strong cold sensations
quality of sensation and duration (coolness not cold, duration at least three hours) (skin of the upper lip): sensations of cold, but of brief duration
